# Several values for one entry are separate records, joined by “and”; a condition that tells them apart may be missing. Equal entries are not always repeated.
# System: subjects with chronic idiopathic thrombocytopenic purpura (ITP)
# Test: Phase 2 double-blind placebo-controlled dose-ranging 28-day study of E5501 tablets: platelet count response (responder rate)
# Format: in vivo, human
# Conditions: for subjects with sustained platelet increases that met the criteria for positive response: 28 days
# Method: This was a phase 2, multi-center, double-blind, randomized, placebo-controlled, dose-ranging, parallel group study of E5501 tablets, used in the treatment of subjects with chronic idiopathic thrombocytopenic purpura (ITP) refractory to or relapsed after at least one prior ITP therapy. Subjects who met all entry criteria were randomly assigned in a 3:3:3:3:1 ratio to one of the following five treatment groups dosed daily for 28 days: 1) E5501 2.5 mg; 2) E5501 5 mg; 3) E5501 10 mg; 4) E5501 20 mg; or 5) placebo (PBO). Each E5501 dosing group consisted of 15 subjects while the PBO group consisted of 5 subjects. All study subjects were evaluated weekly (days 7, 14, 21 and 28) for safety and efficacy while receiving study treatment, with a final assessment for safety and effectiveness performed 4 weeks after the last study dose (day 56) unless the subject entered the follow-on study. Platelet counts were also measured on day 3 and day 5.
# The primary objective of this study was to assess platelet count response to E5501 on day 28. The response rate was defined as the proportion of subjects who were not on steroids with a screening visit B platelet count <30,000/mm^3 and who achieved a platelet count ≧50,000/mm^3, together with the proportion of subjects receiving steroids with a screening visit B platelet count ≧30,000/mm^3 but <50,000/mm^3 who achieved a platelet count ≧20,000/mm^3 above their screening visit B platelet count. Secondary objectives of the study included the evaluation of other markers of effectiveness, including changes in peripheral blood platelet count, the proportion of subjects who achieved a platelet count ≧50,000/mm^3 and ≧100,000/mm^3, and the proportion of subjects who achieved a doubling of their platelet count at screening visit B and the assessment of the safety and tolerability of E5501.
# Primary efficacy endpoint. The primary endpoint in this study was E5501 responder rate on day 28. A responder is defined as a subject with screening visit B platelet count <30,000/mm^3 who achieves a platelet count ≧50,000/mm^3 or a subject receiving steroids with a screening visit B platelet count ≧30,000/mm^3 but <50,000/mm^3 who achieves a platelet count ≧20,000/mm^3 above their screening visit B platelet count.
# The secondary endpoints included changes from screening visit B in peripheral blood platelet counts over time; the proportion of subjects who achieved a platelet count of ≧50,000/mm^3 or ≧100,000/mm^3 on day 28 and the proportion of subjects whose platelet count doubled compared to their platelet count at Screening Visit B.
# The populations of interest were defined as follows: • The randomized population included all subjects who were randomized into the study. • The safety population included all randomized subjects who receive at least one dose of study drug and have at least one safety assessment. • The pharmacokinetic (PK) population included all subjects who provided blood sample for analysis of E5501. A subject was included in this population if the subject had at least one blood draw for PK assessment. • The full analysis set (FAS) included all subjects who provided adequate data to derive at least one efficacy assessment. […] The day 28 visit window was defined to be from day 25, to last dose day+1, inclusively; • Other major protocol violations that impacted the platelet endpoint evaluation. Results from Planned Analyses
# Primary Efficacy Endpoint. The analysis of efficacy was performed both on the FAS population and the PP population at day 28 visit with LOCF and observed case (OC) approaches. The primary analysis population was the FAS. Fisher's exact test was used to examine the difference of response rates among each treatment pair. All p-values are nominal without adjustment for multiplicity.
# Secondary Efficacy Endpoint. Analyses for secondary efficacy endpoints were performed by treatment group and by analysis visit using both LOCF and OC methods. […]
# [1] = Day 3, FAS, Observed Case, 2.5 mg
# [2] = Day 3, FAS, Observed Case, 5 mg
# [3] = Day 3, FAS, Observed Case, 10 mg
# [4] = Day 3, FAS, Observed Case, 20 mg
# [5] = Day 3, FAS, Observed Case, Total E5501
# [6] = Day 5, FAS, Observed Case, 2.5 mg
# [7] = Day 5, FAS, Observed Case, 5 mg
# [8] = Day 5, FAS, Observed Case, 10 mg
# [9] = Day 5, FAS, Observed Case, 20 mg
# [10] = Day 5, FAS, Observed Case, Total E5501
# [11] = Day 28, Baseline Platelet Cnt. >15K/mm^3, 2.5 mg
# [12] = Day 28, Baseline Platelet Cnt. >15K/mm^3, 5 mg
# [13] = Day 28, Baseline Platelet Cnt. >15K/mm^3, 10 mg
# [14] = Day 28, Baseline Platelet Cnt. >15K/mm^3, 20 mg
# [15] = Day 28, Baseline Platelet Cnt. >15K/mm^3, Total E5501
# [16] = Day 28, Baseline Platelet Cnt. ≦15K/mm^3, 2.5 mg
# [17] = Day 28, Baseline Platelet Cnt. ≦15K/mm^3, 5 mg
# [18] = Day 28, Baseline Platelet Cnt. ≦15K/mm^3, 10 mg
# [19] = Day 28, Baseline Platelet Cnt. ≦15K/mm^3, 20 mg
# [20] = Day 28, Baseline Platelet Cnt. ≦15K/mm^3, Total E5501
# [21] = Day 28, Full Analysis Population, LOCF, 2.5 mg
# [22] = Day 28, Full Analysis Population, LOCF, 5 mg
# [23] = Day 28, Full Analysis Population, LOCF, 10 mg
# [24] = Day 28, Full Analysis Population, LOCF, 20 mg
# [25] = Day 28, Full Analysis Population, LOCF, Total E5501
# [26] = Day 28, No Previous History of Splenectomy, 2.5 mg
# [27] = Day 28, No Previous History of Splenectomy, 5 mg
compound,measurement,setting,value
"O=C(Nc1nc(-c2cc(Cl)cs2)c(N2CCN(C3CCCCC3)CC2)s1)c1cnc(N2CCC(C(=O)O)CC2)c(Cl)c1 [E5501, 1-(3-chloro-5-{[4-(4-chlorothiophen-2-yl)-5-(4-cyclohexylpiperazin-1-yl)thiazol-2-yl]carbamoyl}pyridine-2-yl)piperidine-4-carboxylic acid]",subjects refractory to splenectomy who responded,20 mg,66.7%
same,reduction in the response rate from day 7 to 28 days,20 mg dose group,about 15%
same,platelet counts from baseline (FIG. 1),"28 day study period, 2.5-20 mg",markedly increased platelet counts from baseline
same,subjects with sustained platelet increases that met the criteria for positive response,5 mg,28.6%
same,subjects with sustained platelet increases that met the criteria for positive response,10 mg,41.7%
same,subjects with sustained platelet increases that met the criteria for positive response,20 mg,76.9% and ~80%
same,"Responder, No",[1],4 (100.0) n (%)
same,"Responder, Yes",[1],0 n (%)
same,"Responder, No",[2],3 (100.0) n (%)
same,"Responder, Yes",[2],0 n (%)
same,"Responder, No",[3],2 (100.0) n (%)
same,"Responder, Yes",[3],0 n (%)
same,"Responder, No",[4],3 (75.0) n (%)
same,"Responder, Yes",[4],1 (25.0) n (%)
same,"Responder, No",[5],12 (92.3) n (%)
same,"Responder, Yes",[5],1 (7.7) n (%)
same,"Responder, No",[6],4 (100.0) n (%)
same,"Responder, Yes",[6],0 n (%)
same,"Responder, No",[7],2 (33.3) n (%)
same,"Responder, Yes",[7],4 (66.7) n (%)
same,"Responder, No",[8],3 (75.0) n (%)
same,"Responder, Yes",[8],1 (25.0) n (%)
same,"Responder, No",[9],4 (80.0) n (%)
same,"Responder, Yes",[9],1 (20.0) n (%)
same,"Responder, No",[10],13 (68.4) n (%)
same,"Responder, Yes",[10],6 (31.6) n (%)
same,Nonresponder,"Day 7, FAS, LOCF, 2.5 mg",14 (93.3) n (%)
same,Responder,"Day 7, FAS, LOCF, 2.5 mg",1 (6.7) n (%)
same,Nonresponder,"Day 7, FAS, LOCF, 5 mg",5 (33.3) n (%)
same,Responder,"Day 7, FAS, LOCF, 5 mg",10 (66.7) n (%)
same,Nonresponder,"Day 7, FAS, LOCF, 10 mg",5 (35.7) n (%)
same,Responder,"Day 7, FAS, LOCF, 10 mg",9 (64.3) n (%)
same,Nonresponder,"Day 7, FAS, LOCF, 20 mg",1 (6.7) n (%)
same,Responder,"Day 7, FAS, LOCF, 20 mg",14 (93.3) n (%)
same,Nonresponder,"Day 7, FAS, LOCF, Total E5501",25 (42.4) n (%)
same,Responder,"Day 7, FAS, LOCF, Total E5501",34 (57.6) n (%)
same,Nonresponder,"Day 14, FAS, LOCF, 2.5 mg",12 (80.0) n (%)
same,Responder,"Day 14, FAS, LOCF, 2.5 mg",3 (20.0) n (%)
same,Nonresponder,"Day 14, FAS, LOCF, 5 mg",6 (40.0) n (%)
same,Responder,"Day 14, FAS, LOCF, 5 mg",9 (60.0) n (%)
same,Nonresponder,"Day 14, FAS, LOCF, 10 mg",3 (21.4) n (%)
same,Responder,"Day 14, FAS, LOCF, 10 mg",11 (78.6) n (%)
same,Nonresponder,"Day 14, FAS, LOCF, 20 mg",1 (6.7) n (%)
same,Responder,"Day 14, FAS, LOCF, 20 mg",14 (93.3) n (%)
same,Nonresponder,"Day 14, FAS, LOCF, Total E5501",22 (37.3) n (%)
same,Responder,"Day 14, FAS, LOCF, Total E5501",37 (62.7) n (%)
same,Nonresponder,"Day 21, FAS, LOCF, 2.5 mg",13 (86.7) n (%)
same,Responder,"Day 21, FAS, LOCF, 2.5 mg",2 (13.3) n (%)
same,Nonresponder,"Day 21, FAS, LOCF, 5 mg",6 (40.0) n (%)
same,Responder,"Day 21, FAS, LOCF, 5 mg",9 (60.0) n (%)
same,Nonresponder,"Day 21, FAS, LOCF, 10 mg",7 (50.0) n (%)
same,Responder,"Day 21, FAS, LOCF, 10 mg",7 (50.0) n (%)
same,Nonresponder,"Day 21, FAS, LOCF, 20 mg",2 (13.3) n (%)
same,Responder,"Day 21, FAS, LOCF, 20 mg",13 (86.7) n (%)
same,Nonresponder,"Day 21, FAS, LOCF, Total E5501",28 (47.5) n (%)
same,Responder,"Day 21, FAS, LOCF, Total E5501",31 (52.5) n (%)
same,"Responder, No",[11],8 (80.0) n (%)
same,"Responder, Yes",[11],2 (20.0) n (%)
same,"Responder, No",[12],6 (46.2) n (%)
same,"Responder, Yes",[12],7 (53.8) n (%)
same,"Responder, No",[13],4 (44.4) n (%)
same,"Responder, Yes",[13],5 (55.6) n (%)
same,"Responder, No",[14],2 (18.2) n (%)
same,"Responder, Yes",[14],9 (81.8) n (%)
same,"Responder, No",[15],20 (46.5) n (%)
same,"Responder, Yes",[15],23 (53.5) n (%)
same,"Responder, No",[16],5 (100.0) n (%)
same,"Responder, Yes",[16],0 n (%)
same,"Responder, No",[17],1 (50.0) n (%)
same,"Responder, Yes",[17],1 (50.0) n (%)
same,"Responder, No",[18],3 (60.0) n (%)
same,"Responder, Yes",[18],2 (40.0) n (%)
same,"Responder, No",[19],1 (25.0) n (%)
same,"Responder, Yes",[19],3 (75.0) n (%)
same,"Responder, No",[20],10 (62.5) n (%)
same,"Responder, Yes",[20],6 (37.5) n (%)
same,"Responder, No",[21],13 (86.7) n (%)
same,"Responder, Yes",[21],2 (13.3) n (%)
same,"Responder, No",[22],7 (46.7) n (%)
same,"Responder, Yes",[22],8 (53.3) n (%)
same,"Responder, No",[23],7 (50.0) n (%)
same,"Responder, Yes",[23],7 (50.0) n (%)
same,"Responder, No",[24],3 (20.0) n (%)
same,"Responder, Yes",[24],12 (80.0) n (%)
same,"Responder, No",[25],30 (50.8) n (%)
same,"Responder, Yes",[25],29 (49.2) n (%)
same,"Responder, No",[26],9 (90.0) n (%)
same,"Responder, Yes",[26],1 (10.0) n (%)
same,"Responder, No",[27],5 (45.5) n (%)
same,"Responder, Yes",[27],6 (54.5) n (%)
same,"Responder, No","Day 28, No Previous History of Splenectomy, 10 mg",5 (45.5) n (%)
